From patent US9427415B2, “Methods and compositions for modifying sensorial perception” (The Procter & Gamble Company, priority 2014, dated 2016) come the findings set out here.

One assay has as its target T1, human TRPA1 (Homo sapiens, UniProt O75762, K186N/R3C/R58T).
T1 construct: expressed in transfected cells; pcDNA3 control cells
Briefly: Intracellular calcium (Fluo-4, FLIPR) activation of TRPA1 cells by GRAS compounds.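 On all read-outs here: TRPA1-expressing cells, fluorescence read on a FLIPR Tetra (ex 488 nm, em 514 nm) every 2 s for 10 min after compound addition, baseline subtracted.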 Particulars: relative to AITC 30 μM; for activation at 1000 µM / A1 activation, % of agonist value: 1 mM; for activation at 1000 µM / activation at 100 µM: read-out: A1 activation, % of agonist value. The format is cell-based.

The test system of another assay is TRPA1V1. Kind of assay: Intracellular calcium (Fluo-4, FLIPR) activation of TRPA1V1 cells (co-expressing TRPA1 and TRPV1) by GRAS compounds.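 Further: HEK293 cells co-expressing TRPA1 and TRPV1, fluorescence read at 488/514 nm after baseline subtraction, recorded every 2 s over 10 min, ionomycin 10 µM and buffer as controls.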 Conditions: relative to AITC 30 μM. It counts as cell-based, human. For orientation: Calcium assays in cells follow changes in intracellular calcium, usually with a dye or a luminescent sensor.

Like-named read-outs stand apart in the source and are kept apart here.

T1 sequence (O75762 whole entry R3C/R58T/K186N): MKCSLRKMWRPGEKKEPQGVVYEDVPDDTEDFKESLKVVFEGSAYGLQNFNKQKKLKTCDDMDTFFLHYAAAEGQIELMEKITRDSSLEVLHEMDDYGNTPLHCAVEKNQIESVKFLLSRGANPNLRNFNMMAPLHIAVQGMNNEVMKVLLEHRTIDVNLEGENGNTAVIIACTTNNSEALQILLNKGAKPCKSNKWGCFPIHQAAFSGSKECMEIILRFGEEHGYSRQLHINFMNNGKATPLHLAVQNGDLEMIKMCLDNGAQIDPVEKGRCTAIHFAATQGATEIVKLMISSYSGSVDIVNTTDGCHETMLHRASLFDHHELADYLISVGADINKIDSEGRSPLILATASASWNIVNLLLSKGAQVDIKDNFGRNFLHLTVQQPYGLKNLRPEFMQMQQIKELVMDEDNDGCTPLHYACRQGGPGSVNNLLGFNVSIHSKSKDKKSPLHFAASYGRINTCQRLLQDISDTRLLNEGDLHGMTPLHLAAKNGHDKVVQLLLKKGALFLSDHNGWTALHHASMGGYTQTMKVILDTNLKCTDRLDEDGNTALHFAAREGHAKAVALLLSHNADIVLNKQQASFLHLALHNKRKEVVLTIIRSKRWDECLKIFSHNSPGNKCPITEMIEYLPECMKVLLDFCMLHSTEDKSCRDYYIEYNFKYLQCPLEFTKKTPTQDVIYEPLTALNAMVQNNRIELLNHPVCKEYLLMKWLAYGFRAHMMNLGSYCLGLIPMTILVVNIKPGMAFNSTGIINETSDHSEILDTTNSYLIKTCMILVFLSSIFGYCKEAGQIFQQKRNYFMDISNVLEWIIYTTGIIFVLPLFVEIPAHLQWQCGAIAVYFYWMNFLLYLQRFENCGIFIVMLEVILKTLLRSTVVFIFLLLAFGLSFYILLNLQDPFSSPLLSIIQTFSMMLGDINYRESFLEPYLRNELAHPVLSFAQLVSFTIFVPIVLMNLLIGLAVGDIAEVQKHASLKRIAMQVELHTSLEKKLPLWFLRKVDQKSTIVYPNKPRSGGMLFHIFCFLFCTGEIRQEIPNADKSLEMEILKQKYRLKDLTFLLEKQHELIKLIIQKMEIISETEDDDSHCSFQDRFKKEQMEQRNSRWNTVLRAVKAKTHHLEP

Turning to `C=CCc1ccc(OC(C)=O)c(OC)c1` [Eugenyl acetate], the activation at 1000 µM at human TRPA1 (Table 1(c)) was determined as 75.4%. Further, the “A1V1 activation, % of agonist value” in the assay on TRPA1V1 (Table 1(c), 1 mM) worked out at 83.94%.

With `C=CCc1ccc(OC(=O)CC(C)C)c(OC)c1` [Eugenyl isovalerate], at human TRPA1 (Table 1(e)), the activation at 1000 µM is 59.7%. Moreover, the “A1V1 activation, % of agonist value” in the assay with TRPA1V1 (Table 1(e), 1 mM) worked out at 79.29%.

As for `c1ccc(CCCC2CCCO2)cc1` (stereo not shown) [Furan, tetrahydro-2-(3-phenylpropyl)-], the activation at 1000 µM at human TRPA1 (Table 1(e)) was 26%. The “A1V1 activation, % of agonist value” with TRPA1V1 (Table 1(e), 1 mM) was 72.09%.

Turning to `CC(=O)OCc1ccco1` [Furfuryl acetate], the activation at 1000 µM on human TRPA1 (Table 1(d)) worked out at 120%. For the same molecule, the “A1V1 activation, % of agonist value” in the assay with TRPA1V1 (Table 1(d), 1 mM) was found to be 91.3%.

Regarding `CC(=O)SCc1ccco1` [Furfurylthiol acetate], on human TRPA1 (Table 1(d)), the “A1 activation, % of agonist value” stood at 75.5%. The “A1V1 activation, % of agonist value” in the assay with TRPA1V1 (Table 1(d), 1 mM) stood at 60%.

As to `CCCCCCOC(=O)CCC` [Hexyl butyrate], the activation at 1000 µM at human TRPA1 (Table 1(e)) came out at 43.2%. The “A1V1 activation, % of agonist value” in the assay on TRPA1V1 (Table 1(e), 1 mM) stood at 55.89%.

As to `CCCCCCOC(=O)c1cccnc1` [Hexyl nicotinate], on human TRPA1 (Table 1(d)), the activation at 1000 µM stood at 72.9%. For the same molecule, the “A1V1 activation, % of agonist value” with TRPA1V1 (Table 1(d), 1 mM) was determined as 54.4%.

Consider `CC(=O)OCCC(C)C` [Isoamyl acetate], for which the activation at 1000 µM on human TRPA1 (Table 1(c)) is 49.6%. Besides, the “A1V1 activation, % of agonist value” in the assay with TRPA1V1 (Table 1(c), 1 mM) was 61.80%.

As to `CNc1ccccc1C(=O)OCC(C)C` [Isobutyl N-methyl anthranilate], at human TRPA1 (Table 1(d)), the “A1 activation, % of agonist value” is 59.73%. Also, the “A1V1 activation, % of agonist value” in the assay on TRPA1V1 (Table 1(d), 1 mM) turned out to be 36.7%.

Consider `CC=Cc1ccc(OC(C)=O)c(OC)c1` [Isoeugenyl acetate], for which the activation at 1000 µM at human TRPA1 (Table 1(c)) was 57.6%. In addition, the “A1V1 activation, % of agonist value” with TRPA1V1 (Table 1(c), 1 mM) came out at 68.34%.

Turning to `CC=Cc1ccc(OC(=O)Cc2ccccc2)c(OC)c1` [Isoeugenyl phenylacetate], the activation at 1000 µM on human TRPA1 (Table 1(c)) turned out to be 59.1%. The “A1V1 activation, % of agonist value” in the assay on TRPA1V1 (Table 1(c), 1 mM) was found to be 58.40%.

Turning to `CC(C)N=C=S` [Isopropyl isothiocyanate], the activation at 1000 µM on human TRPA1 (Table 1(e)) turned out to be 41.8%. Further, in the assay on TRPA1V1 (Table 1(e), 1 mM), the “A1V1 activation, % of agonist value” worked out at 71.6%.

Consider `CC(C)OC(=O)Cc1ccccc1` [Isopropyl phenylacetate], for which, on human TRPA1 (Table 1(d)), the activation at 1000 µM was 80.2%. Besides, the “A1V1 activation, % of agonist value” in the assay with TRPA1V1 (Table 1(d), 1 mM) worked out at 60.9%.

With `C=CCCCN=C=S` [Isothiocyanic acid 4-penten-1-yl ester], the activation at 100 µM on human TRPA1 (Table 1(c)) is 51.6%. For the same molecule, the activation at 1000 µM at human TRPA1 (Table 1(e)) is 62.2%. Moreover, the “A1V1 activation, % of agonist value” in the assay on TRPA1V1 (Table 1(c), 100 μM (*)) is 47.3%; in the assay on TRPA1V1 (Table 1(e), 1 mM), 74.8%.

Consider `CC(=O)O[C@@H]1C[C@H](C)CC[C@H]1C(C)C` [L-Menthyl acetate], for which the “A1 activation, % of agonist value” at human TRPA1 (Table 1(e)) stood at 44.88%. The “A1V1 activation, % of agonist value” with TRPA1V1 (Table 1(e), 1 mM) was 60.47%.

In the case of `C=C(C)[C@@H]1CC=C(C=O)CC1` [L-Perillaldehyde], the “A1 activation, % of agonist value” at human TRPA1 (Table 1(c)) was determined as 127.7%. The “A1V1 activation, % of agonist value” with TRPA1V1 (Table 1(c), 1 mM) worked out at 138.2%.

Take `CC1=CC(=O)[C@@H](C(C)C)CC1` [L-Piperitone]: the “A1 activation, % of agonist value” on human TRPA1 (Table 1(e)) is reported as 45%. In addition, the “A1V1 activation, % of agonist value” in the assay on TRPA1V1 (Table 1(e), 1 mM) was found to be 68.40%.

For `C=CC(C)(O)CCC=C(C)C` (stereo not shown) [Linalool], the activation at 1000 µM at human TRPA1 (Table 1(d)) was determined as 52.6%. The “A1V1 activation, % of agonist value” with TRPA1V1 (Table 1(d), 1 mM) is given as 20%.

In the case of `C=CC(C)(CCC=C(C)C)OC(=O)c1ccccc1` (stereo not shown) [Linalyl benzoate], the activation at 100 µM at human TRPA1 (Table 1(c)) turned out to be 44.4%. Besides, the “A1V1 activation, % of agonist value” in the assay on TRPA1V1 (Table 1(c), 100 μM (*)) worked out at 55.3%.

Take `CCC(=O)Oc1c(C)occc1=O` [Maltol propionate]: the “A1 activation, % of agonist value” at human TRPA1 (Table 1(c)) worked out at 85.04%. Besides, the “A1V1 activation, % of agonist value” in the assay on TRPA1V1 (Table 1(c), 1 mM) stood at 81.97%.

As for `CC(C)=CCCC(C)C=O` (stereo not shown) [Melonal], the “A1 activation, % of agonist value” at human TRPA1 (Table 1(c)) turned out to be 52%. The “A1V1 activation, % of agonist value” in the assay with TRPA1V1 (Table 1(c), 1 mM) worked out at 57%.

In the case of `COC(=O)c1ccccc1OC` [Methyl 2-methoxybenzoate], the activation at 1000 µM at human TRPA1 (Table 1(c)) was 71.2%. In addition, the “A1V1 activation, % of agonist value” in the assay with TRPA1V1 (Table 1(c), 1 mM) came to 74.68%.

On to `CSSc1ccoc1C` [Methyl 2-methyl-3-furyl disulfide], for which the activation at 1000 µM on human TRPA1 (Table 1(c)) was determined as 52.6%. The “A1V1 activation, % of agonist value” with TRPA1V1 (Table 1(c), 1 mM) stood at 52%.

Turning to `CCCCCCC#CC(=O)OC` [Methyl 2-nonynoate], on human TRPA1 (Table 1(d)), the activation at 1000 µM worked out at 101%. In the assay on TRPA1V1 (Table 1(d), 1 mM), the “A1V1 activation, % of agonist value” is 76.1%.

`COC(=O)CCCc1ccccc1` [Methyl 4-phenylbutyrate]: the activation at 1000 µM at human TRPA1 (Table 1(c)) was found to be 58.4%. The “A1V1 activation, % of agonist value” in the assay with TRPA1V1 (Table 1(c), 1 mM) turned out to be 50.30%.

`CNc1ccccc1C(=O)OC` [Methyl N-methylanthranilate]: the activation at 1000 µM at human TRPA1 (Table 1(c)) stood at 83.6%. Also, the “A1V1 activation, % of agonist value” with TRPA1V1 (Table 1(c), 1 mM) came out at 86.81%.

On to `CCCCC/C=C\C/C=C\CCCCCCCC(=O)OC` [Methyl linoleate], for which the activation at 1000 µM at human TRPA1 (Table 1(e)) was 31%. In the assay on TRPA1V1 (Table 1(e), 1 mM), the “A1V1 activation, % of agonist value” was found to be 81.7%.

In the case of `COC(=O)c1ccccc1NC=O` [Methyl o-formamidobenzoate], the activation at 1000 µM on human TRPA1 (Table 1(c)) stood at 75.4%. In addition, the “A1V1 activation, % of agonist value” in the assay with TRPA1V1 (Table 1(c), 1 mM) is recorded as 75.64%.
